The values that follow come from ChEMBL document CHEMBL1201862, “PubChem BioAssay data set” (2004).

Activity calls are given as the source filed them. Some results are limits rather than exact numbers.

The target in assay [1] is T1, Nucleotide-binding oligomerization domain-containing protein 2 (Homo sapiens, UniProt Q9HC29). Briefly: NOD2 inhibitors, SAR follow-up, set 2 (AID 2475). It counts as functional.
Assay [2] deals with HEK293. Put plainly: SAR analysis of compounds that are cytotoxic to HEK293 - Set 2. [Related pubchem assays (depositor defined):AID1575, AID1578, AID1849, AID2001, AID2333, AID2334, AID2335, AID2337, AID2800]. The assay is classed as functional, cell-based. The settings on record: Homo sapiens.
Assay [3] concerns the target T2, Interleukin-8 (Homo sapiens, UniProt P10145). Briefly: SAR analysis of GM-Tri-DAP induced IL-8 secretion in MCF-7/NOD1 cells - Set 2. [Related pubchem assays (depositor defined):AID1575, AID1578, AID2333]. The assay is classed as functional, cell-based.
Assay [4] relates to HEK293. Put plainly: SAR analysis of compounds that are cytotoxic to HEK293 - Set 3. [Related pubchem assays (depositor defined):AID1575, AID1578, AID1848, AID1849, AID2001, AID2333, AID2334, AID2335, AID2337, AID2469]. It counts as functional, cell-based. The settings on record: Homo sapiens.
In assay [5] the target is T1, Nucleotide-binding oligomerization domain-containing protein 2. Briefly: NOD2 signaling inhibitors, analog potency, SAR follow-up, cell-based, set 3 (AID 2799). It counts as functional.
Assay [6] deals with T3, Nucleotide-binding oligomerization domain-containing protein 1 (Homo sapiens, UniProt Q9Y239).
T3 sequence (Q9Y239 whole entry): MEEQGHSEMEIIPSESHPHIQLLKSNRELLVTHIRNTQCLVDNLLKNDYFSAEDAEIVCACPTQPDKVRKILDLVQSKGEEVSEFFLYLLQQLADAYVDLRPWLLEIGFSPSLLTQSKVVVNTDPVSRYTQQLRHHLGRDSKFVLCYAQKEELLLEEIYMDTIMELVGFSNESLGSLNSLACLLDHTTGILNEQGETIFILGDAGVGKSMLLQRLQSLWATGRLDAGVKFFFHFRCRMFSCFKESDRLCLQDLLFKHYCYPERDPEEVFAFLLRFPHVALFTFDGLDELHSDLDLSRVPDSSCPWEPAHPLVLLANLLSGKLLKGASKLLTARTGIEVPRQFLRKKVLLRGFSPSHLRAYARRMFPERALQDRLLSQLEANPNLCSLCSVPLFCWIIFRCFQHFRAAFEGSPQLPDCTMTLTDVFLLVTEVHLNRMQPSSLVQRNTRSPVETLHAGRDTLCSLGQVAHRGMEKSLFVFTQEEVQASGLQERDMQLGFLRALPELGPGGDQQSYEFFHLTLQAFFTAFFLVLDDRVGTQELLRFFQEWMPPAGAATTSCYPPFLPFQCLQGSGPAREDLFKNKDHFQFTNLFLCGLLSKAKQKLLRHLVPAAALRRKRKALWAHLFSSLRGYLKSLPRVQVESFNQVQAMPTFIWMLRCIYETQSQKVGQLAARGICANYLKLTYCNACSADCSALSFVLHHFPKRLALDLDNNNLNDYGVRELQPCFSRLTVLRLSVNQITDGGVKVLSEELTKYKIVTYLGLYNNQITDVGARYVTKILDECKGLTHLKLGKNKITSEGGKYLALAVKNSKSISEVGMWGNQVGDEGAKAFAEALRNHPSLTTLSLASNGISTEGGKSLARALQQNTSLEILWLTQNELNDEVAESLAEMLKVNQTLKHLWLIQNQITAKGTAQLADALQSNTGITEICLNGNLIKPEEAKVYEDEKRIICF
Briefly: SAR analysis of compounds that inhibit NOD1 - Set 3. [Related pubchem assays (depositor defined):AID1566, AID1575, AID1578, AID1849, AID1852, AID2333, AID2335, AID2466]. It counts as functional.

In assay [7] the target is T3, Nucleotide-binding oligomerization domain-containing protein 1. Put plainly: SAR analysis of NF-kappaB dependent luciferase using DAP as an inducer - Set 2. [Related pubchem assays (depositor defined):AID1566, AID1575, AID1578, AID1579, AID1849, AID1852, AID2264]. It counts as functional.
A further assay deals with Tumor necrosis factor (Homo sapiens, UniProt P01375). Briefly: TNFa-triggered NF-kB activation inhibitors, SAR follow-up, cell-based, set 3 (AID 2801). The assay is classed as functional.
Tumor necrosis factor, sequence (P01375 whole entry): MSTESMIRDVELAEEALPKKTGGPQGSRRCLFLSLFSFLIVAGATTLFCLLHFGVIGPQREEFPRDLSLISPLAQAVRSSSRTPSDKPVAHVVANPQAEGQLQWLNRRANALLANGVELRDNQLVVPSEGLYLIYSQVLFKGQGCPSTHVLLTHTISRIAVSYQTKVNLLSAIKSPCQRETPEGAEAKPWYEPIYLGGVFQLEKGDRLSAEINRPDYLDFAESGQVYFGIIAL
Assay [8] concerns the target T2, Interleukin-8. Put plainly: SAR analysis of Tumor necrosis factor alpha (TNF-alpha) induced IL-8 secretion in MCF-7/NOD1 cells - Set 2. [Related pubchem assays (depositor defined):AID1575, AID2250, AID2260]. It counts as functional, cell-based.
For assay [9], the target named is T4, G-protein coupled receptor 35 (Homo sapiens, UniProt Q9HC97). Put plainly: SAR analysis of Antagonists of the GPR35 Receptor using an Image-Based Assay - Set 3. [Related pubchem assays (depositor defined):AID2013, AID2026]. It counts as functional.
T4 sequence (Q9HC97 whole entry): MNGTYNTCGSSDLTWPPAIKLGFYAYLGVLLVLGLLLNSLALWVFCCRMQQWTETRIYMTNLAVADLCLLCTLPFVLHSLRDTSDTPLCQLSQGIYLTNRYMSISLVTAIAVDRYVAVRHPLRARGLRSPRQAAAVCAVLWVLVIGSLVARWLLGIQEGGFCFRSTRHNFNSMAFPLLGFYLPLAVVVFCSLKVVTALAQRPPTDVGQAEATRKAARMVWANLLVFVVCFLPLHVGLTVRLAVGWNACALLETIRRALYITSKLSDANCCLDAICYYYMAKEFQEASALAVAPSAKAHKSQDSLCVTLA
Assay [10] deals with T5, Cannabinoid receptor 1 (Homo sapiens, UniProt P21554). Briefly: SAR analysis of agonists of the Cannabinoid Receptor 1 using an Image-Based Assay - Set 2. [Related pubchem assays (depositor defined):AID2013, AID2026]. It counts as functional.
T5 sequence (P21554 whole entry): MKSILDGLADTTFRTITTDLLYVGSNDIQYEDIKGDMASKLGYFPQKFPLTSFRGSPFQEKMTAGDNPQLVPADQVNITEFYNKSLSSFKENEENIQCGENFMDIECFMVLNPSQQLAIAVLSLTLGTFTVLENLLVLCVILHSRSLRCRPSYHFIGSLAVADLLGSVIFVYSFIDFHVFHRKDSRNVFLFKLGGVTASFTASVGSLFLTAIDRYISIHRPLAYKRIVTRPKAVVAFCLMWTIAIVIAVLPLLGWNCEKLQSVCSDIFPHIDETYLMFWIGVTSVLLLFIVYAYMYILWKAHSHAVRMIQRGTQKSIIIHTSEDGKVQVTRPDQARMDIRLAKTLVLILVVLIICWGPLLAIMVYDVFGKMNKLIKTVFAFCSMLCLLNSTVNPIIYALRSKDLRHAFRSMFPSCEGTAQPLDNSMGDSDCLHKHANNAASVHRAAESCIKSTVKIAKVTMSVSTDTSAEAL
For assay [11], the target named is T4, G-protein coupled receptor 35. Put plainly: SAR analysis of Agonists of the GPR35 Receptor using an Image-Based Assay - Set 2. [Related pubchem assays (depositor defined):AID2013, AID2026]. It counts as functional.
In assay [12] the target is T5, Cannabinoid receptor 1. Briefly: SAR analysis of antagonists of the Cannabinoid Receptor 1 using an Image-Based Assay - Set 2. [Related pubchem assays (depositor defined):AID2013, AID2026]. It counts as functional.
Assay [13] concerns the target T6, G-protein coupled receptor 55 (Homo sapiens, UniProt Q9Y2T6). Put plainly: GPR55 antagonists blocking LPI-driven arrestin recruitment, primary screen, imaging, U2OS, beta-arrestin-GFP, LPI agonist (AID 2013).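 Also: antagonist potency measured as reduced agonist-driven arrestin aggregation.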 It counts as functional. (In general: Activated receptors often draw arrestin, which recruitment assays turn into a signal.)
The target in assay [14] is T7, Cannabinoid receptor 2 (Homo sapiens, UniProt P34972). Put plainly: SAR analysis of antagonists of the Cannabinoid Receptor 2 using an Image-Based Assay. [Related pubchem assays (depositor defined):AID2013, AID2026]. The assay is classed as functional.
T7 sequence (P34972 whole entry): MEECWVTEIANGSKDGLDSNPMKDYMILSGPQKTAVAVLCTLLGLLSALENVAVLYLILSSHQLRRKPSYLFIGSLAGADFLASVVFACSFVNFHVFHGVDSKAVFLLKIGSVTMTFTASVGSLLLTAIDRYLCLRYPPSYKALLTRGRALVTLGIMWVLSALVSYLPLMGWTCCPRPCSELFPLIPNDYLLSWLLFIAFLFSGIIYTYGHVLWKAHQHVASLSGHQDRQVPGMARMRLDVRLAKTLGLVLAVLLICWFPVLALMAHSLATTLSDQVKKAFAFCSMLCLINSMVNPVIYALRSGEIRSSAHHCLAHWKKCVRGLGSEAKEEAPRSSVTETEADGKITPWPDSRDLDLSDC
Assay [15] deals with Streptococcus sp. 'group A'. Briefly: growth inhibition of control SK(-) GAS strain, dose response, counter-screen for streptokinase expression inhibitor project, luminescence, kanamycin, BacTiterGlo, confirmation (AID 1900). It counts as functional, organism-based. Background: A counterscreen serves to expose hits that act by an unwanted route or on another target.
Another assay deals with Streptococcus. Put plainly: Group A Streptococcus viability loss, dose response, counter-screen for streptokinase expression inhibitor project, luminescence, BacTiterGlo (AID 1915).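 Also: potency for reduction of bacterial viability or growth.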 The assay is classed as functional, organism-based.
Assay [16] has as its target T6, G-protein coupled receptor 55. Briefly: GPR55 antagonist potency of analogs, SAR follow-up, imaging, U2OS, beta-arrestin-GFP, LPI agonist, set 2 (AID 2820). It counts as functional.
The next assay has as its target T8, Streptokinase A (Streptococcus pyogenes serotype M1, UniProt P10520).
T8 sequence (P10520 whole entry): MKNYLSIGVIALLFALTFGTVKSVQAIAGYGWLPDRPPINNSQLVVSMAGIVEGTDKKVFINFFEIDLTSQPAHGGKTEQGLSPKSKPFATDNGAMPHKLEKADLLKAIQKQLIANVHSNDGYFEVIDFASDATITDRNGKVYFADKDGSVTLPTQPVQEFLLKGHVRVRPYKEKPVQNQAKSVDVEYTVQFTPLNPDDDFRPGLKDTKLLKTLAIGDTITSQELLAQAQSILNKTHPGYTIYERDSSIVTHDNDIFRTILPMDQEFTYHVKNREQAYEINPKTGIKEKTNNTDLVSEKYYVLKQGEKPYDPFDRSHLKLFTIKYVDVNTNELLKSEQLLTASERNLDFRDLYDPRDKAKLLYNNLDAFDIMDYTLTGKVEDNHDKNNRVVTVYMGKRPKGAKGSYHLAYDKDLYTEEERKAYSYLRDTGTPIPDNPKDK
Briefly: S. pyogenes streptokinase expression inhibitors, potency, dose response, plasminogen activation absorbance, OD405 (AID 1914).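 Also: secreted streptokinase activity via plasminogen activation per viability signal from cell pellet.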 The assay is classed as functional, Streptococcus pyogenes M1 GAS.

In assay [17] the target is T7, Cannabinoid receptor 2. Briefly: SAR analysis of agonists of the Cannabinoid Receptor 2 using an Image-Based Assay. [Related pubchem assays (depositor defined):AID2013, AID2026]. It counts as functional.
Another assay deals with Exodeoxyribonuclease V (Escherichia coli (strain K12), UniProt P04993+P07648+P08394). Briefly: E. coli RecBCD inhibitors, dose response, counter-screen for AddAB inhibitor project, absorbance, V66 E. coli, mutant T4 phage (AID 492957). It counts as functional, cell-based, Escherichia coli str. K-12 substr. MG1655.
Assay [18] is described as follows: cytotoxicity in HPDE-C7 cells, cell-based, fluorescence, HTS (AID 430). The assay is classed as functional. The settings on record: Homo sapiens.
Assay [19] is described as follows: cytotoxicity in KRAS-transformed pancreatic duct cells, primary screen, cell-based, fluorescence, HTS (AID 431).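 Also: cell line used: HPDE-C7K.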 It counts as functional. The settings on record: Homo sapiens.
The nature of assay [20]: Counterscreen for AddAB inhibitors: absorbance-based bacterial cell-based high throughput dose response assay for inhibitors of bacterial viability. [Related pubchem assays (depositor defined):AID435030, AID449728, AID449731, AID488942, AID488955, AID488956]. It counts as functional.

T1 sequence (Q9HC29 whole entry, the tested form may be a part): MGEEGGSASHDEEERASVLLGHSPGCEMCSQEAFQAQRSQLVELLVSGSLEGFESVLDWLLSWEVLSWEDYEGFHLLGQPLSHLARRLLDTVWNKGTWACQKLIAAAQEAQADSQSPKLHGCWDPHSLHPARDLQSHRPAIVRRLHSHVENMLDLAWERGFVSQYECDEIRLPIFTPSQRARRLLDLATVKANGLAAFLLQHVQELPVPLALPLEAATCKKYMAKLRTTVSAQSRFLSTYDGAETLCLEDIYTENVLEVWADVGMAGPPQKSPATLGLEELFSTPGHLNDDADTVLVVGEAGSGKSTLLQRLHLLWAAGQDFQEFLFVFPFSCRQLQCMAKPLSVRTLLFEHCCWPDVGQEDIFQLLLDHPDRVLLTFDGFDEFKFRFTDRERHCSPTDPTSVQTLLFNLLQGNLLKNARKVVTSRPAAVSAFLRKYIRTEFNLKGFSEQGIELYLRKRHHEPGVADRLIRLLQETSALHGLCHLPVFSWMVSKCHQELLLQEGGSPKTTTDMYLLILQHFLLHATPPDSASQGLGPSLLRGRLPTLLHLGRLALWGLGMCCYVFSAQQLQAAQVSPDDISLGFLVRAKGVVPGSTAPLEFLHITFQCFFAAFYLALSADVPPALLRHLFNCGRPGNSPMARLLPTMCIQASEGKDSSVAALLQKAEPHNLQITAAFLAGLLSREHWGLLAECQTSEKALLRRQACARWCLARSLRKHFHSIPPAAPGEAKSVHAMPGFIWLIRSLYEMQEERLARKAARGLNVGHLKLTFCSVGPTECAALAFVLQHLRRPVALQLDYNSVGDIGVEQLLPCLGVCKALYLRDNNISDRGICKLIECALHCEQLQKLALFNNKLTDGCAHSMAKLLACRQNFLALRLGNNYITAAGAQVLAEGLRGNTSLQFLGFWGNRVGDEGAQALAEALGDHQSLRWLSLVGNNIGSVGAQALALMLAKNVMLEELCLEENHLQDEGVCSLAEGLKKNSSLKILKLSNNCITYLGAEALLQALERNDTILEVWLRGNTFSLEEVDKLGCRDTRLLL
T6 sequence (Q9Y2T6 whole entry): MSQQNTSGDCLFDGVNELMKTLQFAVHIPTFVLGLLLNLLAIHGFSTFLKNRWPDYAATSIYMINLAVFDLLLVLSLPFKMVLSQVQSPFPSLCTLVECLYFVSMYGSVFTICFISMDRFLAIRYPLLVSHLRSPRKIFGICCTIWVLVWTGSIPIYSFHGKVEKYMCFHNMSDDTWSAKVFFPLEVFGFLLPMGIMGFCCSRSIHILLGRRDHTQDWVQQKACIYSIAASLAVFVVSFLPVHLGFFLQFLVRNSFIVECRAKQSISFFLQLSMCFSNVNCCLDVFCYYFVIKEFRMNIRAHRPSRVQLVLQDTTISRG
T2 sequence (P10145 whole entry): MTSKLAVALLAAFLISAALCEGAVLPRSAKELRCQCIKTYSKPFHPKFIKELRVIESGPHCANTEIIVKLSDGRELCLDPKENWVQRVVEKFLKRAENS

Regarding `C/C=C/Cn1c(SCc2ccccc2)nc2c1c(=O)[nH]c(=O)n2C`, the IC50 in assay [1] is > 20 µM (inactive); with HEK293 [2], > 20 µM (inactive); on Interleukin-8 [3], > 25 µM (inactive); in the assay on HEK293 [4], > 20 µM (inactive); in assay [5], > 20 µM (inactive); in assay [6], 18.6 µM (active). In addition, the IC50 is > 25 µM (inactive) in assay [7], > 20 µM (inactive) at Tumor necrosis factor and > 25 µM (inactive) on Interleukin-8 [8].
On to `Cc1ccc(-n2cc3c(-c4cccc(Br)c4)nnc(C)c3n2)cc1`, for which the IC50 was > 32 µM (inactive) in assay [9]; 2.94 µM (active) on Cannabinoid receptor 1 [12]; 2.21 µM (active) in assay [13]; 23.8 µM (inactive) at Cannabinoid receptor 2 [14]; 1.24 µM (active) in assay [16]. The EC50 on Cannabinoid receptor 1 [10] is > 32 µM (inactive); in [11], > 32 µM (inactive); in assay [15], 7.37 µM (active); in the assay with Streptococcus it was 46.9 µM (active); on Streptokinase A it was 94.1 µM (active); at Cannabinoid receptor 2 [17], > 32 µM (inactive).
With `O=C(Nc1nnc(-c2ccccc2)o1)c1ccc(Cl)cc1`, the results for the IC50 (on Exodeoxyribonuclease V; in [20]) were 44.2 µM (inactive) and 47 µM (inactive), respectively. The EC50 is 3.14 µM (active) in assay [18], 0.26 µM (active) in assay [15], 0.67 µM (active) in the assay on Streptococcus and 3.15 µM (active) in assay [19].

One may read the IC50 as the midpoint of a concentration-inhibition curve. As a reminder, the EC50 is the concentration that produces a half-maximal response.
